Target: T1, TNFα high affinity receptors on L929 fibroblasts (Mus musculus, UniProt P25118)
T1 construct: host or cells: L929 mouse fibroblasts
T1 sequence (P25118 30-454): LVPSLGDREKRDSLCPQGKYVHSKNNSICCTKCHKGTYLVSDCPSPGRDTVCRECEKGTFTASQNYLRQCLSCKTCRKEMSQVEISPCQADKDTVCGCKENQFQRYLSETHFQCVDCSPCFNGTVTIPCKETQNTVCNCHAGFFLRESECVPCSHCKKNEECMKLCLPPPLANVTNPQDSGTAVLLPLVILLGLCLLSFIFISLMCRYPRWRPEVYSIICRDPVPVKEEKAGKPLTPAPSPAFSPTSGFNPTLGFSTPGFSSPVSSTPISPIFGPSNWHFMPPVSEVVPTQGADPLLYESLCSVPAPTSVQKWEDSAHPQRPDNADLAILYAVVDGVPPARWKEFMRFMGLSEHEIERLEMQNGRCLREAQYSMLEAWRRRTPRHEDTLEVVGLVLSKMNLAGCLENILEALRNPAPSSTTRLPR
Test: 125I-TNFα binding to high affinity receptors on L929 fibroblasts
Conditions: 90 min, N=6
Text: Few reports in the literature indicate interaction at these receptor sites other than by peptides or antibodies. […] Blocking these receptors is desirable because the entire inflammation cascade of events is triggered by the early release of TNFa and IL-1. […] Radioisotopes were obtained from New England Nuclear [Dupont, Boston, MA] and substrates and co- factors were obtained from Sigma Chemical Co. [St. Louis, MO]. […] Cell lines were obtained from American Type Culture Collection [Rockville, MD]. In Vivo Tests Anti-inflammatory screen in mice: Male CF male mice weighing 28-32g obtained from Jackson Lab. [Bar Harbor, […]] were used to screen agents at 8 or 16 mg/kg intraperitoneal [I.P.] x 2 administered 3 hr and 30 min prior to administering the irritant, according to Winter's protocol. Evaluation of the induced edema was made by injecting 2% carrageenan in 0.9% saline into the plantar region of the foot. The opposite foot injected with 0.9% isotonic saline was used as a base line. […] Salmonella abortus equi [Lot # 69F4003] […] Drugs from 2 to 16 mg/kg, I.P. were administered 2 hr prior and 2 hr post-injection of the LPS and then subsequently for every 24 hr for the length ofthe animals' lives. Deaths were recorded every 12 hr and continued for 96 hr. […] In vitro TNFa andIL-1 Measurements and Cellular Regulation IC-21 mouse macrophages were maintained in RPMI-1640 + 10% FCS + P/S. After the cells had grown to confluency, E. coli LPS at 10 Ixg/ml was added to the medium. Agents were incubated at 12.5 to 100 µM final concentration for 18 hr. The medium (100 btl) was collected for TNFCt determinations. Interleukin-1 [IL-1] release was determined using P388D1 cells which were maintained in RPMI-1640 + 10% FCS + P/S. The L929 bioassay was used to quantitate the TNF and the IL-1 levels. The L929 mouse fibroblasts were grown in DMEM + 10% FCS + P/S to confluency in 96 well plates and incubated with 100 tl ofmedium from […] or P388D cells after 18 hr. The cells were stained with 0.2% crystal violet in 20% MeOH and read at 580 nm using a Molecular Devices scanner (SOFT-max program). High Affinity Binding to Receptors on L929-106 Cells Two laCi of 125I-TNFct (human recombinant, 30 mCi/tg New England Nuclear) or 125I-IL-1 (70-120[.t Ci/lxg,New England Nuclear) was added to confluency L929 cells for 90 min or 5 hr, […] The cells were washed repeatedly with isotonic saline, pH.7.2 and aliquots counted. Prostaglandin cylcooxygenase activity Mouse J774AI macrophages maintained in Dulbecco's modified Eagle's medium + 15% FCS + P/S. Cells (5 x 106) were incubated with agents (5 to 100 ].tM final concentration) and 3H-arachidonic acid (100 Ci/mol) for 60 min at 37C in a CO2 incubator. The reaction was terminated with 2N HCI, the mixture extracted 2 X with ether, and the organic layer evaporated.

Structure (SMILES): COc1c2cc(S(=O)(=O)[O-])cc1Cc1cc(S(=O)(=O)[O-])cc(c1OC)Cc1cc(S(=O)(=O)[O-])cc(c1OC)Cc1cc(S(=O)(=O)[O-])cc(c1OC)Cc1cc(S(=O)(=O)[O-])cc(c1OC)Cc1cc(S(=O)(=O)[O-])cc(c1OC)C2.[Na+].[Na+].[Na+].[Na+].[Na+].[Na+] [Compound 6]
- TNFα binding, Percent of Control (5 μM): 61 + 5% of Control
- TNFα binding, Percent of Control (12.5 μM): 39 + 4% of Control
- TNFα binding, Percent of Control (25 μM): 24 + 3% of Control
- TNFα binding, Percent of Control (50 μM): 36 + 5% of Control

Structure (SMILES): CC(=O)Oc1c2cc(S(=O)(=O)[O-])cc1Cc1cc(S(=O)(=O)[O-])cc(c1OC(C)=O)Cc1cc(S(=O)(=O)[O-])cc(c1OC(C)=O)Cc1cc(S(=O)(=O)[O-])cc(c1OC(C)=O)Cc1cc(S(=O)(=O)[O-])cc(c1OC(C)=O)Cc1cc(S(=O)(=O)[O-])cc(c1OC(C)=O)Cc1cc(S(=O)(=O)[O-])cc(c1OC(C)=O)Cc1cc(S(=O)(=O)[O-])cc(c1OC(C)=O)C2.[Na+].[Na+].[Na+].[Na+].[Na+].[Na+].[Na+].[Na+] [Compound 8]
- TNFα binding, Percent of Control (5 μM): 59 + 6% of Control
- TNFα binding, Percent of Control (25 μM): 23 + 4% of Control
- TNFα binding, Percent of Control (50 μM): 37 + 4% of Control

Source: article PMC2365101, “Anti-Inflammatory Activity of (Polyphenolic)-Sulfonates and Their Sodium Salts in Rodents” (Metal-Based Drugs, 1998)
